The results in this text go back to ChEMBL document CHEMBL5335793, “PITB: A high affinity transthyretin aggregation inhibitor with optimal pharmacokinetic properties” (Eur J Med Chem, 2023).

Data set [1] is described as follows: Cmax in CD-1 mouse at 1 mg/kg, iv measured for 24 hrs by UPLC-MS/MS analysis. In kind it is ADME, organism-based. Also noted: dose 1 mg/kg, time 24 hrs, route iv. Particulars: in vivo.
Data set [2] is described as follows: Drug metabolism in CD-1 mouse assessed as 3-O-methylM23 formation by measuring AUC (0 to 24 hrs) at 1 mg/kg, iv by UPLC-MS/MS analysis. It is filed as ADME, organism-based. Also noted: time 24 hrs, dose 1 mg/kg, route iv. The following applies: in vivo.
Data set [3] is described as follows: Drug metabolism in CD-1 mouse assessed as 3-O-methylM23 formation by measuring Cmax at 10 mg/kg, po measured for 24 hrs by UPLC-MS/MS analysis. In kind it is ADME, organism-based. More on the design: time 24 hrs, dose 10 mg/kg, route po. The following applies: in vivo.
Data set [4] is described as follows: Cmax in CD-1 mouse at 10 mg/kg, po measured for 24 hrs by UPLC-MS/MS analysis. More on the design: dose 10 mg/kg, time 24 hrs, route po. Particulars: in vivo. It is filed as ADME, organism-based.
Data set [5] can be described thus: Half life in CD-1 mouse at 10 mg/kg, po measured for 24 hrs by UPLC-MS/MS analysis. In kind it is ADME, organism-based. The following applies: in vivo.
Data set [6] can be described thus: Drug metabolism in CD-1 mouse assessed as 3-O-methylM23 formation by measuring AUC (0 to 24 hrs) at 10 mg/kg, po by UPLC-MS/MS analysis. It is filed as ADME, organism-based. Also noted: time 24 hrs, dose 10 mg/kg, route po. Particulars: in vivo.
Data set [7] is described as follows: Drug metabolism in CD-1 mouse assessed as 3-O-methylM23 formation by measuring half life at 10 mg/kg, po measured for 24 hrs by UPLC-MS/MS analysis. It is filed as ADME, organism-based. Particulars: in vivo.
Data set [8] can be described thus: AUC (0 to 24 hrs) in CD-1 mouse at 1 mg/kg, iv by UPLC-MS/MS analysis. In kind it is ADME, organism-based. Also noted: time 24 hrs, dose 1 mg/kg, route iv. The following applies: in vivo.
Data set [9] is described as follows: Drug metabolism in CD-1 mouse assessed as 3-O-methylM23 formation by measuring Cmax at 1 mg/kg, iv measured for 24 hrs by UPLC-MS/MS analysis. It is filed as ADME, organism-based. Also noted: dose 1 mg/kg, time 24 hrs, route iv. Particulars: in vivo.
Data set [10] in a line: AUC (0 to 24 hrs) in CD-1 mouse at 10 mg/kg, po measured for 24 hrs by UPLC-MS/MS analysis. It is filed as ADME, organism-based. Also noted: time 24 hrs, dose 10 mg/kg, route po. Particulars: in vivo.
A short description of data set [11]: Drug metabolism in CD-1 mouse assessed as 3-O-methylM23 formation by measuring Tmax at 10 mg/kg, po measured for 24 hrs by UPLC-MS/MS analysis. It is filed as ADME, organism-based. Particulars: in vivo.
A short description of data set [12]: Drug metabolism in CD-1 mouse assessed as 3-O-methylM23 formation by measuring half life at 1 mg/kg, iv measured for 24 hrs by UPLC-MS/MS analysis. It is filed as ADME, organism-based. The following applies: in vivo.
The nature of data set [13]: Half life in CD-1 mouse at 1 mg/kg, iv measured for 24 hrs by UPLC-MS/MS analysis. In kind it is ADME, organism-based. Particulars: in vivo.
A short description of data set [14]: Tmax in CD-1 mouse at 10 mg/kg, po measured for 24 hrs by UPLC-MS/MS analysis. In kind it is ADME, organism-based. Particulars: in vivo.
Data set [15] concerns Transthyretin (Homo sapiens), P02766 [V50M]. As to the kind of experiment: Stabilization of TTR V30M mutant in human plasma assessed as degree of tetramer stability at 19.1 uM incubated overnight followed by urea addition measured after 5 hrs by isoelectric focusing based densitometry relative to control. In kind it is cell-free.
Data set [16] concerns the target T1, Transthyretin (Homo sapiens, UniProt P02766). As to the kind of experiment: Binding affinity to wild-type TTR (unknown origin) expressed in Escherichia coli BL21(DE3) assessed as change in entropy at 100 uM by ITC analysis. (Isothermal titration calorimetry measures the heat released or taken up as one component is titrated into another.)
The nature of data set [17]: Elimination rate constant in CD-1 mouse at 10 mg/kg, po measured for 24 hrs by UPLC-MS/MS analysis. Particulars: in vivo. It is filed as ADME, organism-based.
Data set [18] can be described thus: Clearance in CD-1 mouse at 10 mg/kg, po measured for 24 hrs by UPLC-MS/MS analysis. In kind it is ADME, organism-based. Particulars: in vivo.
The target in data set [19] is T1, Transthyretin. As to the kind of experiment: Binding affinity to wild-type TTR (unknown origin) expressed in Escherichia coli BL21(DE3) assessed as change in enthalpy at 100 uM by ITC analysis.
Data set [20] concerns Transthyretin (Homo sapiens), P02766 [V142I]. Put plainly: Binding affinity to TTR V122I mutant (unknown origin) expressed in Escherichia coli BL21(DE3) assessed as change in entropy at 100 uM by ITC analysis.
Data set [21] relates to Transthyretin (Homo sapiens), P02766 [V50M]. Put plainly: Binding affinity to TTR V30M mutant (unknown origin) expressed in Escherichia coli BL21(DE3) assessed as change in entropy at 100 uM by ITC analysis.
Data set [22] is described as follows: Volume of distribution in CD-1 mouse at 10 mg/kg, po measured for 24 hrs by UPLC-MS/MS analysis. In kind it is ADME, organism-based. Particulars: in vivo.
Data set [23] deals with Transthyretin (Homo sapiens), P02766 [V50M]. As to the kind of experiment: Binding affinity to TTR V30M mutant (unknown origin) expressed in Escherichia coli BL21(DE3) assessed as change in enthalpy at 100 uM by ITC analysis.
Data set [24] concerns Transthyretin (Homo sapiens), P02766 [V142I]. Put plainly: Binding affinity to TTR V122I mutant (unknown origin) expressed in Escherichia coli BL21(DE3) assessed as change in enthalpy at 100 uM by ITC analysis.

Molecules are shown by their SMILES. Bounds are passed on as bounds.

The Cmax is the highest concentration seen after dosing. The AUC is the area under the concentration-time curve, a measure of exposure. As a reminder, the half-life is how long it takes for the measured level to halve. A lower half-life goes with fast loss. A word on the AUC(0-t): it is the area under the concentration-time curve up to a stated or last time point. A lower AUC(0-t) goes with low exposure. The term Tmax denotes the time from dosing to the highest level. As to `O=C(c1cc(O)cc(F)c1)c1cc(O)c(O)c([N+](=O)[O-])c1`, the Cmax came to 1360 ng/mL in [1], 96.7 ng/mL in [3], 744 ng/mL in [4] and 555.3 ng/mL in [9]. In addition, the AUC in [2] turned out to be 462.1 ng·h/mL; in [6], 209.1 ng·h/mL. Also, the half-life in data set [5] is 0.9 h; in data set [13], 1.5 h. Besides, the t1/2 in data set [7] is 2.8 h; in [12], 2.7 h. Further, the results for the AUC(0-t) at 24 h in data set [8] and in data set [10] were 761 ng·h/mL and 866 ng·h/mL, respectively. Moreover, the Tmax in data set [11] and in data set [14] was < 0.25 h throughout.
By CL/F is commonly meant the apparent clearance, not corrected for the fraction that reaches the circulation. For `Cc1ccc(C(=O)c2cc(O)c(O)c([N+](=O)[O-])c2)cc1` [TOLCAPONE], in data set [15], the Activity worked out at 4.9%. The -TdeltaS at Transthyretin [16] was 3.6 kcal/mol; in [20] it was 2.2 kcal/mol; in [21], 5.1 kcal/mol. Besides, in data set [4], the Cmax was 7620 ng/mL. This compound had a k el at 24 h in [17] of 0.000139 s⁻¹. For the same compound, the CL/F in [18] is 13.3 mL/min/kg. This compound showed a half-life in [5] of 1.4 h. The deltaH at Transthyretin [19] is -13.6 kcal/mol; in [23], -13.8 kcal/mol; in data set [24] it was -12.2 kcal/mol. Besides, the Vd in data set [22] was 1.6 L/kg. In data set [10], this compound came in with an AUC(0-t) at 24 h of 11900 ng·h/mL. For the same compound, in data set [14], the Tmax was < 0.25 h.
